Source: the NIST ThermoML archive (doi:10.1021/acs.jced.6b00455)

Assay: mn = molality of the nth substance listed, in mol/kg
Conditions: 101 kPa, Liquid, Alternating current cell with electrodes

C[N+](C)(C)CCO.O=C([O-])C(F)(F)C(F)(F)C(F)(F)C(F)(F)C(F)(F)C(F)(F)F [(2-hydroxyethyl)trimethylammonium perfluoroheptanoate] + O
Conditions	electrical conductivity [S/m]
293.15 K, m1 = 0.000135	0.0009
293.15 K, m1 = 0.000317	0.002
293.15 K, m1 = 0.000535	0.0035
293.15 K, m1 = 0.000719	0.0047
293.15 K, m1 = 0.000905	0.0059
293.15 K, m1 = 0.001097	0.0071
293.15 K, m1 = 0.001295	0.0083
293.15 K, m1 = 0.001556	0.01
293.15 K, m1 = 0.001738	0.0112
293.15 K, m1 = 0.001921	0.0124
293.15 K, m1 = 0.002361	0.0151
293.15 K, m1 = 0.002553	0.0164
293.15 K, m1 = 0.002745	0.0179
293.15 K, m1 = 0.002967	0.0189
293.15 K, m1 = 0.003167	0.0201
293.15 K, m1 = 0.003365	0.021
293.15 K, m1 = 0.003617	0.0224
293.15 K, m1 = 0.003811	0.0234
293.15 K, m1 = 0.003989	0.0244
293.15 K, m1 = 0.004235	0.0259
293.15 K, m1 = 0.004463	0.0271
293.15 K, m1 = 0.004647	0.0283
293.15 K, m1 = 0.005243	0.0318
293.15 K, m1 = 0.00563	0.0339
293.15 K, m1 = 0.006196	0.037
293.15 K, m1 = 0.006659	0.0405
293.15 K, m1 = 0.006813	0.0416
293.15 K, m1 = 0.007215	0.0437
293.15 K, m1 = 0.007673	0.0468
293.15 K, m1 = 0.007989	0.0489
298.15 K, m1 = 0.000182	0.0012
298.15 K, m1 = 0.000351	0.0023
298.15 K, m1 = 0.000524	0.0036
298.15 K, m1 = 0.000696	0.0048
298.15 K, m1 = 0.000849	0.0059
298.15 K, m1 = 0.001022	0.0071
298.15 K, m1 = 0.001139	0.0079
298.15 K, m1 = 0.001334	0.0092
298.15 K, m1 = 0.001552	0.0107
298.15 K, m1 = 0.001763	0.0123
298.15 K, m1 = 0.001988	0.014
298.15 K, m1 = 0.002225	0.0158
298.15 K, m1 = 0.002433	0.0172
298.15 K, m1 = 0.002631	0.0186
298.15 K, m1 = 0.00283	0.0198
298.15 K, m1 = 0.003092	0.0212
298.15 K, m1 = 0.003297	0.0222
298.15 K, m1 = 0.003578	0.0237
298.15 K, m1 = 0.003893	0.0254
298.15 K, m1 = 0.004239	0.0271
298.15 K, m1 = 0.004535	0.0288
298.15 K, m1 = 0.004786	0.0303
298.15 K, m1 = 0.00505	0.0318
298.15 K, m1 = 0.005319	0.0333
298.15 K, m1 = 0.005529	0.0345
298.15 K, m1 = 0.005823	0.0361
303.15 K, m1 = 0.000162	0.0014
303.15 K, m1 = 0.000327	0.0027
303.15 K, m1 = 0.000396	0.0031
303.15 K, m1 = 0.000558	0.0045
303.15 K, m1 = 0.000597	0.0046
303.15 K, m1 = 0.000902	0.0068
303.15 K, m1 = 0.001056	0.0084
